This note sets out measurements from BindingDB's records for doi:10.7270/Q2W957K6 (Pcmd, 2008).

Structures can show the parent of a compound that is named as a salt.

For this assay, the target named is Coagulation factor XI (Homo sapiens, UniProt P03951). Put plainly: human FXIa inhibitor potency, dose response, biochemical (AID 679).
Chain of Coagulation factor XI (P03951 19-387 limits assumed): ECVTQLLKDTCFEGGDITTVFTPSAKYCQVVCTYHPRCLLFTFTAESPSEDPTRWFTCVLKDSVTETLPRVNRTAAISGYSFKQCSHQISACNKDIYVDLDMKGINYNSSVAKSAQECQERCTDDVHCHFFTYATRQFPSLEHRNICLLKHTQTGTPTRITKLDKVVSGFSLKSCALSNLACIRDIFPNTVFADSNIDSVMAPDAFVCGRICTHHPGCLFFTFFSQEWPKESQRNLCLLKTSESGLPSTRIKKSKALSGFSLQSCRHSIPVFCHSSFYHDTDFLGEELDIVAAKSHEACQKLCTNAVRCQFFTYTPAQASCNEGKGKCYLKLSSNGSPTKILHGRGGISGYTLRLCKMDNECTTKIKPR
Chain of Coagulation factor XI (P03951 388-625 limits assumed): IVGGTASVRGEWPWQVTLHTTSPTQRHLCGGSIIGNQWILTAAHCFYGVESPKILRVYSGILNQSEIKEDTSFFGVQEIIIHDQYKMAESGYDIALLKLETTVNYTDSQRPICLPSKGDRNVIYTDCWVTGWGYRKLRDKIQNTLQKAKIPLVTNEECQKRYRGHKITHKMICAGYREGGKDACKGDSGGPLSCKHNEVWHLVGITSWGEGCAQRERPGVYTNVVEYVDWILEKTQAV
For orientation: IC50 means the concentration that gives 50% inhibition. Low values mean higher potency, high ones lower potency. For the compound `O=c1nc(-c2ccccc2)c2cc(Cl)ccc2[nH]1`, the IC50 is > 50 µM.
The value for `O=S(=O)(Nc1cccc2nsnc12)c1ccccc1` was 9.3 µM.
In the case of `COc1ccc(S(=O)(=O)N2CCC(C(=O)N3CCc4ccccc4C3)CC2)cc1Cl`, the 50% inhibitory concentration (IC50) stood at 6.26 µM.
As for `COc1ccc(Cn2nnnc2C(c2ccccc2Cl)N2CCC(C(N)=O)CC2)cc1` (configuration not stated), the figure is > 50 µM.
The value for `O=C(NC(C(=O)c1ccccc1)n1c(=O)cc[nH]c1=S)c1ccccc1` (configuration not stated) was > 50 µM; that for `CNCCCc1ccccc1` was > 50 µM.
As for `COc1ccc(CC(=O)NCc2ccc3c(c2)OCO3)cc1`, the figure is > 50 µM; as for `Cc1ccc(NC(=O)CCn2cccc2)cc1`, > 50 µM.
With `CCCC1CCc2c(sc(N)c2C(N)=O)C1` (configuration not stated), the IC50 is > 50 µM.
The value for `CCN(CC)CCNC(=O)C(C)c1nn(C)c(=O)c2ccccc12` (configuration not stated) was > 50 µM; that for `N#Cc1cc2c(nc1SCC(=O)Nc1sc3c(c1C#N)CCC3)CCC2` was > 50 µM; that for `OCCCn1c(-c2ccccc2)nc(=S)c2c1CCCC2` was > 50 µM.
As for `O=C(CCSc1nnc2ccc3ccccc3n12)Nc1ccc(F)cc1`, the figure is > 50 µM; as for `N#Cc1ccc(NC(=O)COC(=O)CNC(=O)C2CCCCC2)cc1`, > 50 µM.
As for `O=C(NCc1ccccc1)C1CCCN(S(=O)(=O)c2cccc3nonc23)C1` (configuration not stated) [1-(2,1,3-benzoxadiazol-4-ylsulfonyl)-N-benzylpiperidine-3-carboxamide], the figure is > 50 µM.
For `Cc1ccc(C(=O)n2nc(-c3cccnc3)nc2N)cc1` [1-(4-methylbenzoyl)-3-(3-pyridinyl)-1H-1,2,4-triazol-5-amine], the IC50 is > 50 µM.
As for `O=C(c1cn(-c2ccccc2)nc1-c1ccncc1)n1nnc2ccccc21` [1-{[1-phenyl-3-(4-pyridinyl)-1H-pyrazol-4-yl]carbonyl}-1H-1,2,3-benzotriazole], the figure is 0.707 µM; as for `CCn1nc(CC(=O)Nc2nnc(CC(=O)N3CCCC3)s2)c2ccccc2c1=O` [2-(3-ethyl-4-oxo-1-phthalazinyl)-N-[5-[2-oxo-2-(1-pyrrolidinyl)ethyl]-1,3,4-thiadiazol-2-yl]acetamide], > 50 µM; as for `Cn1c(SCC(=O)NC2CCCCC2)nnc1-c1cccc(N)c1` [2-[5-(3-Amino-phenyl)-4-methyl-4H-[1,2,4]triazol-3-ylsulfanyl]-N-cyclohexyl-acetamide], > 50 µM.
The value for `CCC(CO)NCc1ccc(OC2CCCC2)cc1` (configuration not stated) [2-[(4-cyclopentyloxyphenyl)methylamino]butan-1-ol;hydrochloride] was > 50 µM; that for `Cc1ccccc1C(=O)N=c1sccn1C` [2-methyl-N-(3-methyl-1,3-thiazol-2-ylidene)benzamide] was > 50 µM; that for `O=c1c(-c2cc3ccccc3o2)[n+]([O-])c2ccccc2n1OCc1ccccn1` [3-(1-benzofuran-2-yl)-1-(2-pyridinylmethoxy)-2(1H)-quinoxalinone 4-oxide] was > 50 µM.
`CCCc1nc2ccccc2c(=O)n1-c1ccc(OC)cc1` [3-(4-Methoxy-phenyl)-2-propyl-3H-quinazolin-4-one]: the 50% inhibitory concentration (IC50) was > 50 µM.
The value for `O=c1cccc2n1CC1CC2CN(S(=O)(=O)c2ccccc2)C1` (configuration not stated) [3-Benzenesulfonyl-1,2,3,4,5,6-hexahydro-1,5-methano-pyrido[1,2-a][1,5]diazocin-8-one] was > 50 µM.
As for `COc1cc(OC)cc(-c2nnc(SCc3cccc(C(=O)O)c3)o2)c1` [3-[[5-(3,5-dimethoxyphenyl)-1,3,4-oxadiazol-2-yl]sulfanylmethyl]benzoic acid], the figure is > 50 µM; as for `O=C(CCCN1C(=O)c2ccccc2C1=O)NCC1CCCO1` (configuration not stated) [4-[1,3-bis(oxidanylidene)isoindol-2-yl]-N-(oxolan-2-ylmethyl)butanamide], 14.6 µM; as for `COc1cc(OC)c2c(N)c(C#N)c(C(F)(F)C(F)(F)F)nc2c1` [4-azanyl-5,7-dimethoxy-2-[1,1,2,2,2-pentakis(fluoranyl)ethyl]quinoline-3-carbonitrile], > 50 µM.
